Laboratory results taken from article PMC3243762 (Clinical cancer research : an official journal of the …, 2011).
Several values for one entry are separate records, joined by “and”; a condition that tells them apart may be missing. Equal values may be shown once. Read-outs that look alike come from different tables or passages of the source.

Assays:
[1] = Human radiation dosimetry estimates
[2] = tested on: PSMA+ PC3 PIP and PSMA− PC3 flu xenografts; conditions: for Biodistribution, Bladder (empty) / Biodistribution, Blood / Biodistribution, Bone / Biodistribution, Heart / Biodistribution, Kidney / Biodistribution, Liver / Biodistribution, Lung / Biodistribution, Muscle / Biodistribution, PSMA+ PIP tumor / Biodistribution, PSMA− flu tumor / Biodistribution, Pancreas / Biodistribution, Spleen / Biodistribution, Stomach / Biodistribution, lrg. Intest / Biodistribution, sm. Intest: iv, n = 4
[3] = human source organ, from mouse data

With `O=C(O)CCC(NC(=O)NC(CCCCNC(=O)c1ccc([18F])nc1)C(=O)O)C(=O)O` (centres unmarked) [[^18F]DCFPyL, 2-(3-{1-Carboxy-5-[(6-[^18F]fluoro-pyridine-3-carbonyl)-amino]-pentyl}-ureido)-pentanedioic acid] the “Absorbed dose, Total body” value ([1]; estimated human) was 5.71E-03 mGy/MBq, the Effective dose ([1]; estimated human) was 1.36E-02 mSv/MBq and the Effective dose equivalent ([1]; estimated human) was 1.80E-02 mSv/MBq. The “Absorbed dose, Adrenals” value ([1]; estimated human target organ) was 6.46E-03 mGy/MBq, the “Absorbed dose, Brain” value ([1]; estimated human target organ) was 4.84E-03 mGy/MBq and the “Absorbed dose, Breasts” value ([1]; estimated human target organ) was 3.97E-03 mGy/MBq. For the same molecule, the “Absorbed dose, Gallbladder wall” value ([1]; estimated human target organ) was 6.48E-03 mGy/MBq, the “Absorbed dose, Heart wall” value ([1]; estimated human target organ) was 3.26E-03 mGy/MBq and the “Absorbed dose, Kidneys” value ([1]; estimated human target organ) was 0.05 mGy/MBq and 4.81E-02 mGy/MBq. For the same molecule, the “Absorbed dose, Liver” value ([1]; estimated human target organ) was 7.38E-03 mGy/MBq, the “Absorbed dose, Lower large intestine wall” value ([1]; estimated human target organ) was 9.40E-03 mGy/MBq and the “Absorbed dose, Lungs” value ([1]; estimated human target organ) was 3.01E-03 mGy/MBq. The “Absorbed dose, Muscle” value ([1]; estimated human target organ) was 3.95E-03 mGy/MBq, the “Absorbed dose, Osteogenic cells” value ([1]; estimated human target organ) was 7.59E-03 mGy/MBq and the “Absorbed dose, Ovaries” value ([1]; estimated human target organ) was 9.06E-03 mGy/MBq. For the same molecule, the “Absorbed dose, Pancreas” value ([1]; estimated human target organ) was 4.38E-03 mGy/MBq, the “Absorbed dose, Red marrow” value ([1]; estimated human target organ) was 5.35E-03 mGy/MBq and the “Absorbed dose, Skin” value ([1]; estimated human target organ) was 3.84E-03 mGy/MBq. The “Absorbed dose, Small intestine” value ([1]; estimated human target organ) was 7.53E-03 mGy/MBq, the “Absorbed dose, Spleen” value ([1]; estimated human target organ) was 6.57E-03 mGy/MBq and the “Absorbed dose, Stomach wall” value ([1]; estimated human target organ) was 5.27E-03 mGy/MBq. For the same molecule, the “Absorbed dose, Testes” value ([1]; estimated human target organ) was 7.06E-03 mGy/MBq, the “Absorbed dose, Thymus” value ([1]; estimated human target organ) was 4.43E-03 mGy/MBq and the “Absorbed dose, Thyroid” value ([1]; estimated human target organ) was 4.45E-03 mGy/MBq. For the same molecule, the “Absorbed dose, Upper large intestine wall” value ([1]; estimated human target organ) was 6.67E-03 mGy/MBq, the “Absorbed dose, Urinary bladder wall” value ([1]; estimated human target organ) was 0.15 mGy/MBq and 1.51E-01 mGy/MBq and the “Absorbed dose, Uterus” value ([1]; estimated human target organ) was 1.45E-02 mGy/MBq. The “Time-integrated activity coefficient, Urinary bladder contents” value ([1]; human source organ, dynamic voiding bladder model, one hour voiding interval) was 3.09E-01 MBq-h/MBq, the “Time-integrated activity coefficient, Heart wall” value [1, 3] was 3.97E-04 MBq-h/MBq and the “Time-integrated activity coefficient, Kidneys” value [1, 3] was 7.47E-02 MBq-h/MBq. The “Time-integrated activity coefficient, Liver” value [1, 3] was 4.09E-02 MBq-h/MBq, the “Time-integrated activity coefficient, Lower large intestine” value [1, 3] was 4.23E-04 MBq-h/MBq and the “Time-integrated activity coefficient, Lungs” value [1, 3] was 3.52E-03 MBq-h/MBq. For the same molecule, the “Time-integrated activity coefficient, Muscle” value [1, 3] was 4.50E-02 MBq-h/MBq, the “Time-integrated activity coefficient, Pancreas” value [1, 3] was 1.48E-04 MBq-h/MBq and the “Time-integrated activity coefficient, Small intestine” value [1, 3] was 1.30E-03 MBq-h/MBq. The “Time-integrated activity coefficient, Spleen” value [1, 3] was 2.98E-03 MBq-h/MBq, the “Time-integrated activity coefficient, Stomach” value [1, 3] was 3.36E-04 MBq-h/MBq and the “Time-integrated activity coefficient, Upper large intestine” value [1, 3] was 4.23E-04 MBq-h/MBq. For the same molecule, the “Time-integrated activity coefficient, Remainder” value ([1]; human, remainder of body, from mouse data) was 8.51E-01 MBq-h/MBq, the “Biodistribution, Bladder (empty)” value ([2]; 30 min pi) was 18.6± 18.1 % ID/g and the “Biodistribution, Blood” value ([2]; 30 min pi) was 1.53±0.19 % ID/g. For the same molecule, the “Biodistribution, Bone” value ([2]; 30 min pi) was 0.82 ±0.16 % ID/g, the “Biodistribution, Heart” value ([2]; 30 min pi) was 0.68 ±0.07 % ID/g and the “Biodistribution, Kidney” value ([2]; 30 min pi) was 74.1 ±6.6 % ID/g. For the same molecule, the “Biodistribution, Liver” value ([2]; 30 min pi) was 3.88 ±0.74 % ID/g, the “Biodistribution, Lung” value ([2]; 30 min pi) was 1.91 ±0.47 % ID/g and the “Biodistribution, Muscle” value ([2]; 30 min pi) was 0.39 ±0.05 % ID/g. For the same molecule, the “Biodistribution, PSMA+ PIP tumor” value ([2]; 30 min pi) was 46.7 ±5.8 % ID/g, the “Biodistribution, PSMA− flu tumor” value ([2]; 30 min pi) was 1.17 ±0.41 % ID/g and the “Biodistribution, Pancreas” value ([2]; 30 min pi) was 1.02 ±0.53 % ID/g. The “Biodistribution, Spleen” value ([2]; 30 min pi) was 7.59 ±3.56 % ID/g, the “Biodistribution, Stomach” value ([2]; 30 min pi) was 1.50±1.12 % ID/g and the “Biodistribution, lrg. Intest” value ([2]; 30 min pi) was 0.73 ±0.04 % ID/g. The “Biodistribution, sm. Intest” value ([2]; 30 min pi) was 0.79 ±0.11 % ID/g, the “Biodistribution, Bladder (empty)” value ([2]; 60 min pi) was 9.88 ±4.92 % ID/g and the “Biodistribution, Blood” value ([2]; 60 min pi) was 0.24 ±0.05 % ID/g. For the same molecule, the “Biodistribution, Bone” value ([2]; 60 min pi) was 0.42 ±0.15 % ID/g, the “Biodistribution, Heart” value ([2]; 60 min pi) was 0.20 ±0.11 % ID/g and the “Biodistribution, Kidney” value ([2]; 60 min pi) was 42.3 ±19.0 % ID/g. For the same molecule, the “Biodistribution, Liver” value ([2]; 60 min pi) was 2.87 ±0.92 % ID/g, the “Biodistribution, Lung” value ([2]; 60 min pi) was 0.55 ±0.17 % ID/g and the “Biodistribution, Muscle” value ([2]; 60 min pi) was 0.61 ±0.92 % ID/g. The “Biodistribution, PSMA+ PIP tumor” value ([2]; 60 min pi) was 44.2 ±9.7 % ID/g, the “Biodistribution, PSMA− flu tumor” value ([2]; 60 min pi) was 0.36 ±0.14 % ID/g and the “Biodistribution, Pancreas” value ([2]; 60 min pi) was 0.26 ±0.13 % ID/g. For the same molecule, the “Biodistribution, Spleen” value ([2]; 60 min pi) was 2.70 ±1.28 % ID/g, the “Biodistribution, Stomach” value ([2]; 60 min pi) was 0.35 ±0.34 % ID/g and the “Biodistribution, lrg. Intest” value ([2]; 60 min pi) was 0.40 ±0.17 % ID/g. The “Biodistribution, sm. Intest” value ([2]; 60 min pi) was 0.31 ±0.12 % ID/g, the “Biodistribution, Bladder (empty)” value ([2]; 120 min pi) was 6.44 ±4.42 % ID/g and the “Biodistribution, Blood” value ([2]; 120 min pi) was 0.43 ±0.37 % ID/g. For the same molecule, the “Biodistribution, Bone” value ([2]; 120 min pi) was 0.33 ±0.08 % ID/g, the “Biodistribution, Heart” value ([2]; 120 min pi) was 0.06 ±0.01 % ID/g and the “Biodistribution, Kidney” value ([2]; 120 min pi) was 15.7 ±3.3 % ID/g. For the same molecule, the “Biodistribution, Liver” value ([2]; 120 min pi) was 2.1 % ID/g, the “Biodistribution, Lung” value ([2]; 120 min pi) was 0.18 ±0.02 % ID/g and the “Biodistribution, Muscle” value ([2]; 120 min pi) was 0.04 ±0.00 % ID/g. For the same molecule, the “Biodistribution, PSMA+ PIP tumor” value ([2]; 120 min pi) was 39.4 ±5.4 % ID/g, the “Biodistribution, PSMA− flu tumor” value ([2]; 120 min pi) was 0.11 ±0.02 % ID/g and the “Biodistribution, Pancreas” value ([2]; 120 min pi) was 0.08 ±0.00 % ID/g. The “Biodistribution, Spleen” value ([2]; 120 min pi) was 0.69 ±0.11 % ID/g, the “Biodistribution, Stomach” value ([2]; 120 min pi) was 0.08 ±0.03 % ID/g and the “Biodistribution, lrg. Intest” value ([2]; 120 min pi) was 0.12 ±0.05 % ID/g. For the same molecule, the “Biodistribution, sm. Intest” value ([2]; 120 min pi) was 0.11 ±0.07 % ID/g, the “Biodistribution, Liver” value ([2]; 120 min pi, listed as [^18F]3) was 2.14±0.11 % ID/g and the “Biodistribution, Bladder (empty)” value ([2]; 240 min pi) was 1.54 ±1.79 % ID/g. For the same molecule, the “Biodistribution, Blood” value ([2]; 240 min pi) was 0.03 ±0.01 % ID/g, the “Biodistribution, Bone” value ([2]; 240 min pi) was 0.43 ±0.06 % ID/g and the “Biodistribution, Heart” value ([2]; 240 min pi) was 0.02 ±0.00 % ID/g. The “Biodistribution, Liver” value ([2]; 240 min pi) was 1.80 ±0.39 % ID/g, the “Biodistribution, Lung” value ([2]; 240 min pi) was 0.06 ±0.00 % ID/g and the “Biodistribution, Muscle” value ([2]; 240 min pi) was 0.05 ±0.05 % ID/g. The “Biodistribution, PSMA+ PIP tumor” value ([2]; 240 min pi) was 36.6 ±4.3 % ID/g, the “Biodistribution, PSMA− flu tumor” value ([2]; 240 min pi) was 0.03 ±0.01 % ID/g and the “Biodistribution, Pancreas” value ([2]; 240 min pi) was 0.03 ±0.01 % ID/g. The “Biodistribution, Spleen” value ([2]; 240 min pi) was 0.23 ±0.09 % ID/g, the “Biodistribution, Stomach” value ([2]; 240 min pi) was 0.02 ±0.00 % ID/g and the “Biodistribution, lrg. Intest” value ([2]; 240 min pi) was 0.06 ±0.01 % ID/g. The “Biodistribution, sm. Intest” value ([2]; 240 min pi) was 0.05 ±0.01 % ID/g, the “Biodistribution, Kidney” value ([2]; 240 min pi, listed as [^18F]3) was 7.42 ±0.89 % ID/g and the Bone uptake ([2]; at all time points) was less than 1 % ID/g. For the same molecule, the Non-target tissue uptake ([2]; at or after 1 h post-injection) was “minimal non-target tissue uptake” and the “Decrease of PSMA+ PC3 PIP xenograft uptake” value ([2]; from 30 min pi over the ensuing 4 h) was “about 10%”.
